{"source": "patent US8293873B2", "about": "“Combination of amino acid solution and a gelatin derivative for inhibiting renal up-take” (BioSynthema Inc., priority 2006, dated 2012)", "test_system": "kidney uptake of [177Lu-DOTA0,Tyr3]octreotate", "assay": "Kidney uptake of [177Lu-DOTA0,Tyr3]octreotate measured by NanoSPECT in rats", "type": "in vivo, Male Lewis rats", "method": "For reduction of kidney rats were injected with 20 mg Gelofusine, 100 mg lysine or the combination. Kidney uptake was measured by SPECT scans with a […] multi-pinhole camera (NanoSPECT, Bioscan) at 24 h, 5 and 7 days pi. Kidney uptake was quantified by VOI analysis.", "data": [{"smiles": "NCCCC[C@H](N)C(=O)O", "note": "[lysine]", "values": [{"measurement": "inhibition of kidney uptake of [177Lu-DOTA0,Tyr3]octreotate", "setting": "24 h pi, 555 MBq, 20 mg Gelofusine, 100 mg lysine or the combination, SPECT VOI analysis", "result": "37%±6%"}, {"measurement": "reduction of kidney uptake with an overdose of lysine alone", "setting": "rats, overdose of lysine alone", "result": "did not improve the reduction of the kidney uptake"}]}]}
